# In US20090192142A1, “USE OF CARBAMAZEPINE DERIVATIVES FOR THE TREATMENT OF AGITATION IN DEMENTIA PATIENTS” (priority 2004, published 2009):
# Test system: community-dwelling elderly patients diagnosed with Alzheimer's disease (behavioral agitation)
# Experiment: 8-week, open-label, single-arm study of oxcarbazepine for behavioral agitation in Alzheimer's disease patients
# Assay type: in vivo, human
# Conditions: for change from baseline in Cohen-Mansfield Agitation Inventory (CMAI) score (mean±SD): baseline 60.6±14.7, mean oxcarbazepine daily dose 340 mg/day (range 150-552 mg/day), p≦0.0002
# Description: In an 8-week, open-label, single-arm study are recruited twenty-six patients community-dwelling elderly patients (>63 years of age) diagnosed with Alzheimer's disease. After a 1-week screening period to assess each patient's agitation level, oxcarbazepine 150 mg/day treatment is initiated and titrated by 150 mg/day every 3-7 days to a maximum of 1200 mg/day with a mean oxcarbazepine daily dose of 340 mg/day (range 150-552 mg/day). The primary outcome measure is improvement in behavioral agitation, based on the 38-item Cohen-Mansfield Agitation Inventory (CMAI) that evaluates the prevalence of pathologic and disruptive agitated behavior. Secondary evaluations include effects on neuropsychiatric symptoms, cognitive impairment, global functioning, and tolerability.
# Significant reductions in CMAI score from baseline (mean±SD: 60.6±14.7) occur at each time point (mean±SD change from baseline on Day 14: −16.9±19.7, Day 28: −22.6±19.0, Day 56: −20.8±19.6; all p≦0.0002). […] Cognitive performance and global functioning remain stable throughout the study.
# [1] = patients with Alzheimer's disease, open-label prospective study
structure (smiles),measurement,setting,value
"NC(=O)N1c2ccccc2CC(=O)c2ccccc21 [oxcarbazepine, 10-oxo-10,II-dihydro-5H-dibenz(b,f)azepine-5-carboxamide]",change from baseline in Cohen-Mansfield Agitation Inventory (CMAI) score (mean±SD),Day 14,−16.9±19.7
same,change from baseline in Cohen-Mansfield Agitation Inventory (CMAI) score (mean±SD),Day 28,−22.6±19.0
same,change from baseline in Cohen-Mansfield Agitation Inventory (CMAI) score (mean±SD),Day 56,−20.8±19.6
same,mean Neuropsychiatric Inventory score,"each time point, all p≦0.02 versus screening",Significant improvement
same,efficacy in the treatment of agitation,[1],effective
same,tolerability,[1],generally well tolerated
same,cognitive performance,throughout the 8-week study,remain stable
same,global functioning,throughout the 8-week study,remain stable
